Legend:
Format in all cases: biochemical
sirt3 = molecular target: T1, sirt3 (Homo sapiens, UniProt Q9NTG7); test: fluorescent deacetylase assay, % inhibition at […]; conditions: read-out: Sirt 3 (μM or % Inhibition)
T1 construct: sirt3_118–395 (His6-tagged)
T1 sequence (Q9NTG7 118-395): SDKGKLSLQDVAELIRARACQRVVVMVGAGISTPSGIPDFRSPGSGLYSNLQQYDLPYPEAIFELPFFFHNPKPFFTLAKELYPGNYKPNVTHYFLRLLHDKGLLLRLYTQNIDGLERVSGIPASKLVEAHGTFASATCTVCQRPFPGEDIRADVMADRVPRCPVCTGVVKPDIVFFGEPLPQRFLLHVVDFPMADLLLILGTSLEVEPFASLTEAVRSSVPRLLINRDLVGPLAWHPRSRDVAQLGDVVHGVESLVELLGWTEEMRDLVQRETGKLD

sirt1 = molecular target: T2, sirt1 (Homo sapiens, UniProt Q96EB6); test: fluorescent deacetylase assay (ZMAL substrate, trypsin-coupled)
T2 construct: sirt1_133–747 (GST-tagged)
T2 sequence (Q96EB6 133-747): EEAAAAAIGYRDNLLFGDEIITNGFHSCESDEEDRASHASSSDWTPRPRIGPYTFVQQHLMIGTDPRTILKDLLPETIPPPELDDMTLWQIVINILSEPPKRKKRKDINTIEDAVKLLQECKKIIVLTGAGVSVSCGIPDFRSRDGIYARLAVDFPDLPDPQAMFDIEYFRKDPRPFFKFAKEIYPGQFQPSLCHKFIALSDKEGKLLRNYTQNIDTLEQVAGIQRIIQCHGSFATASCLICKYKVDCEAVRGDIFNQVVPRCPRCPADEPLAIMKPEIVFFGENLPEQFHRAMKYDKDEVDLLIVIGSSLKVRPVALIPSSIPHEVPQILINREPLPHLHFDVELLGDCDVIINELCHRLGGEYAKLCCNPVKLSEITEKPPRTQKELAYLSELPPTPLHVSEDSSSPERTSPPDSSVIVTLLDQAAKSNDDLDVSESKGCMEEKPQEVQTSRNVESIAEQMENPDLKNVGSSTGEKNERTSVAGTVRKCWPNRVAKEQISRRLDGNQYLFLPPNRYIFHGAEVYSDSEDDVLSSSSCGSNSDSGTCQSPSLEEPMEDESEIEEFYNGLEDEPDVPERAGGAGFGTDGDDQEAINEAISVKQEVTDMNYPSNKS

sirt2 = molecular target: T3, sirt2 (Homo sapiens, UniProt Q8IXJ6); test: as above
T3 sequence (Q8IXJ6 56-356): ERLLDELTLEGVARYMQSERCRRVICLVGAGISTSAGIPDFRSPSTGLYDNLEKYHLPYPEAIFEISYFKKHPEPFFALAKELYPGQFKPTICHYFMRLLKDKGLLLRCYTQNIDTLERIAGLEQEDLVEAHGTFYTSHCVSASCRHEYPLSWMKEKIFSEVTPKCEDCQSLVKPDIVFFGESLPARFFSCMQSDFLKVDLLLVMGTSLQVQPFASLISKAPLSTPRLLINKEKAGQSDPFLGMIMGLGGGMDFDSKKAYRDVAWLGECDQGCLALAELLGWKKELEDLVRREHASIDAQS

Row | Structure (SMILES) | inhibition at 50 µM (sirt3) [%] | IC50 (sirt1) [µM] | IC50 (sirt2) [µM]
1 | COc1cc(O)c(C(=O)/C=C/c2ccc(O)cc2)cc1Oc1ccc(C(=O)/C=C/c2ccc(O)cc2)c(O)c1 [compound 8, rhuschalcone IV] | 38 | 46.7 ± 6 | 48.5 ± 39.5
2 | COc1cc(O)c(C(=O)/C=C/c2ccc(O)cc2)cc1Oc1ccc(C(=O)/C=C/c2ccc(O)cc2O)c(O)c1 [compound 9, rhuschalcone I analogue] | – | 40.8 ± 8.5 | 44.8 ± 5.1
